Calls of active or inactive are those of the source.
How the values were obtained:
Interleukin-8 [1] = molecular target: T1, Interleukin-8 (Homo sapiens, UniProt P10145); assay: Dose Response confirmation of uHTS small molecule hits for cystic fibrosis induced NFkb Inhibitors in a PAF-induced IL8 counterscreen.; assay type: functional; conditions: read-out: IC50_Mean
INS1 = assay: beta cell apoptosis inhibitors, cytokine rescue, dose response, luminescence, retest (AID 449756); assay type: functional, cell-based; conditions: Rattus norvegicus;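 further: cell death triggered by IL-1 beta plus TNF-alpha plus IFN-gamma mixture; protective hits raise ATP signal compared with cytokine alone wells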
[2] = miR-122 activators in hepatoma reporter cells, dose response, cell-based, Huh7 psiCHECK-miR122, Renilla luciferase, cherry-picked (AID 651956); assay type: functional;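 further: huh7 hepatoma cells stably carrying a psiCHECK-2 miR-122 sensor plasmid; renilla luciferase signal reporting endogenous miR-122 activity after 48 h compound exposure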
[3] = test system: Streptococcus sp. 'group A'; assay: growth inhibition of control SK(-) GAS strain, dose response, counter-screen for streptokinase expression inhibitor project, luminescence, kanamycin, BacTiterGlo, confirmation (AID 1900); assay type: functional, organism-based
[4] = HEK293T cytotoxicity, dose response, cytotoxicity control for miR-122 modulator project, cell-based, inhibitor set, cherry-pick, set 2 (AID 720697); assay type: functional
Streptococcus = assay: Group A Streptococcus viability loss, dose response, counter-screen for streptokinase expression inhibitor project, luminescence, BacTiterGlo (AID 1915); assay type: functional, organism-based;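 further: potency for reduction of bacterial viability or growth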
[5] = inhibitors of firefly luciferase expression or activity, dose response, H4 neuroglioma cells, luminescence (AID 1990); assay type: functional, cell-based
[6] = molecular target: T2, Ubiquitin-conjugating enzyme E2 N (Homo sapiens, UniProt P61088); assay type: functional;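 further: Dose-response confirmation in a TR-FRET assay detecting UBC13-driven polyubiquitin chain formation, inhibition measured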
T2 sequence (P61088 whole entry): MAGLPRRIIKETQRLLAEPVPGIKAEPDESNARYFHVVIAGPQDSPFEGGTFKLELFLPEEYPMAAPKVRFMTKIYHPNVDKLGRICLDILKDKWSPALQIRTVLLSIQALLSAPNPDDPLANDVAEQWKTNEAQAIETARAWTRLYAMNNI

[7] = non-specific cell cytotoxicity, dose response, cytotoxicity control for PAX8 inhibitor project, plate reader, dry powder samples (AID 743021); assay type: functional, cell-based
Paired box protein Pax-8 = Paired box protein Pax-8 (Homo sapiens, UniProt Q06710); assay: inhibitors of PAX8-driven TPO luciferase reporter, dose response, RMG-I cells, cherry-pick (AID 687027); assay type: functional, cell-based;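 further: luciferase reporter driven by Pax8 target thyroperoxidase promoter measured by SteadyGlo luminescence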
[8] = inhibitors of SNCA 5'UTR-driven reporter translation, confirmation, H4 neuroglioma cells, luminescence (AID 1988); assay type: functional, cell-based
[9] = HEK293T cytotoxicity, dose response, cytotoxicity control for miR-122 modulator project, cell-based, activator set, cherry-pick (AID 720690); assay type: functional;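 further: HEK293T human cells scored for general mammalian cytotoxicity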
[10] = Luminescence Cell-Based Dose Response HTS to Identify Inhibitors of 5'UTR Stem-Loop Driven Prion Protein mRNA Translation in H4 Neuroglioblastoma Cells. [Related pubchem assays: 1827 (Project Summary), 1813 (Primary HTS)]; assay type: functional
Streptokinase A = molecular target: T3, Streptokinase A (Streptococcus pyogenes serotype M1, UniProt P10520); assay: S. pyogenes streptokinase expression inhibitors, potency, dose response, plasminogen activation absorbance, OD405 (AID 1914); assay type: functional, Streptococcus pyogenes M1 GAS;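 further: secreted streptokinase activity via plasminogen activation per viability signal from cell pellet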
T3 sequence (P10520 whole entry): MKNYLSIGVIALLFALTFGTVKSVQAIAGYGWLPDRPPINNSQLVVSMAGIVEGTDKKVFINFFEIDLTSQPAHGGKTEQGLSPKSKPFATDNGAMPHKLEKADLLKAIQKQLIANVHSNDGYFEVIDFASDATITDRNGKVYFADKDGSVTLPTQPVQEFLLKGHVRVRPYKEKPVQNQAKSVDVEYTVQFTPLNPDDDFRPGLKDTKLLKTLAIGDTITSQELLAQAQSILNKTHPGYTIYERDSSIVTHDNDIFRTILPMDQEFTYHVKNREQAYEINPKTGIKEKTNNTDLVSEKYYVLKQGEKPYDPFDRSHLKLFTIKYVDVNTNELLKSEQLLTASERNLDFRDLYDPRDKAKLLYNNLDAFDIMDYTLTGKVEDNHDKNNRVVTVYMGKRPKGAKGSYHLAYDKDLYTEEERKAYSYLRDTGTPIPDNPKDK

Melanocortin receptor 4 = Melanocortin receptor 4 (Homo sapiens, UniProt P32245); assay type: functional, cell-based;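 further: Cell-based assay with luminescence read-out, confirmatory dose-response testing for agonist activity of biased ligands at MC4R; human U2OS cells with tagged receptor and beta-arrestin; potency of agonists that increase receptor coupling to beta-arrestin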
Interleukin-8 [11] = molecular target: T1, Interleukin-8; assay: Dose Response confirmation of uHTS small molecule hits for cystic fibrosis induced NFkb Inhibitors in a TNFa-induced IL8 counterscreen.; assay type: functional; conditions: read-out: IC50_Mean
[12] = molecular target: Long-chain-fatty-acid--AMP ligase FadD28 (Mycobacterium tuberculosis, UniProt P9WQ59); assay: Fluorescence polarization aasay to screen for inhibitors that compete for the binding of FadD28 to a bisubstrate Measured in Biochemical System Using Plate Reader - 2147-01_Inhibitor_Dose_CherryPick_Activity.; assay type: functional, Mycobacterium tuberculosis H37Rv
[13] = molecular target: T4, DNA repair protein RAD52 homolog (Homo sapiens, UniProt P43351); assay type: functional, biochemical
T4 sequence (P43351 whole entry): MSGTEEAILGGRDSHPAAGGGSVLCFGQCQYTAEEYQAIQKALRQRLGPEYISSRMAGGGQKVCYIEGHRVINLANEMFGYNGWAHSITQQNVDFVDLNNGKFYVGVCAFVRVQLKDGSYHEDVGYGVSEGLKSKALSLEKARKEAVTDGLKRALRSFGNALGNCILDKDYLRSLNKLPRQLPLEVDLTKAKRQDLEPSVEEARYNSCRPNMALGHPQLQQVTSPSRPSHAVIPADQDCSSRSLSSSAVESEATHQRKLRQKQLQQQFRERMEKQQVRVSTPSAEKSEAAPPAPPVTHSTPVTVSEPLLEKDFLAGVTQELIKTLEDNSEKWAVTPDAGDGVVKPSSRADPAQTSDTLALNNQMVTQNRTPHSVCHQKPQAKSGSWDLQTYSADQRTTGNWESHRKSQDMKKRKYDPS

[14] = molecular target: DNA repair and recombination protein RAD54-like (Homo sapiens, UniProt Q92698); assay: inhibitors of human RAD54 branch migration, confirmation, biochemical, fluorescence, cherry-picked samples, dose series (AID 651657); assay type: functional
[15] = molecular target: Broad substrate specificity ATP-binding cassette transporter ABCG2 (Homo sapiens, UniProt Q9UNQ0); assay: ABCG2 efflux pump inhibitors, dose response, Ig-MXP3 cells, flow cytometry (AID 1690); assay type: functional
[16] = molecular target: Photoreceptor-specific nuclear receptor (Homo sapiens, UniProt Q9Y5X4); assay type: functional, cell-based;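 further: CHO-S cells with Gal4-NCOR and VP16-NR2E3 two-hybrid luciferase reporter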
[17] = molecular target: 5-hydroxytryptamine receptor 2A (Mus musculus, UniProt P35363); assay type: functional, cell-based;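 further: CHO-K1 cells with tagged receptor and beta-arrestin; agonist potency measured as compound-induced activation of the receptor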
Mu-type opioid receptor = Mu-type opioid receptor (Homo sapiens, UniProt P35372); assay type: functional, cell-based;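 further: U2OS cells with beta-arrestin recruitment to OPRM1 by beta-gal complementation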
[18] = molecular target: Aryl hydrocarbon receptor (Homo sapiens, UniProt P35869); conditions: Potency;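 further: confirmatory quantitative high-throughput screen measuring activation of the AhR signaling pathway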
[19] = molecular target: ADP-ribosylation factor GTPase-activating protein 1 (Rattus norvegicus, UniProt Q62848); assay: Fluorescence polarization-based biochemical high throughput dose response screening assay to identify inhibitors of ADP-ribosylation factor GTPase activating protein 1 (ARFGAP1).; assay type: functional
[20] = molecular target: Arf-GAP with SH3 domain, ANK repeat and PH domain-containing protein 1 (Homo sapiens, UniProt Q9ULH1); assay type: functional;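 further: biochemical fluorescence polarization dose–response screen measuring inhibition of ASAP1; ASAP1 GAP domain stimulating GTP hydrolysis by truncated human ARF1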

Chain of Melanocortin receptor 4 (P32245 whole entry): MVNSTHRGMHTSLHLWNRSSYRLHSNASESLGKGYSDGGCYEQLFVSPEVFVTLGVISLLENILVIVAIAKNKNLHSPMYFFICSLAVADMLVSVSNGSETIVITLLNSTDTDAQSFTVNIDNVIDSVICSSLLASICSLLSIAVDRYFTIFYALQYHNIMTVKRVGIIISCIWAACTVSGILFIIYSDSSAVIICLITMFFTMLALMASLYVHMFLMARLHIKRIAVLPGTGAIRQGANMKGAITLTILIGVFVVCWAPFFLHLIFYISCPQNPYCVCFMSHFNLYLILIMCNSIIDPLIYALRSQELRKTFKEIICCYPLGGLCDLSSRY
T1 sequence (P10145 whole entry): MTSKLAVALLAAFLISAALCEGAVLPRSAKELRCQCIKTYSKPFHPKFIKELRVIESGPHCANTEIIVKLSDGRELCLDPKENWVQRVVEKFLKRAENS
Chain of Mu-type opioid receptor (P35372 whole entry): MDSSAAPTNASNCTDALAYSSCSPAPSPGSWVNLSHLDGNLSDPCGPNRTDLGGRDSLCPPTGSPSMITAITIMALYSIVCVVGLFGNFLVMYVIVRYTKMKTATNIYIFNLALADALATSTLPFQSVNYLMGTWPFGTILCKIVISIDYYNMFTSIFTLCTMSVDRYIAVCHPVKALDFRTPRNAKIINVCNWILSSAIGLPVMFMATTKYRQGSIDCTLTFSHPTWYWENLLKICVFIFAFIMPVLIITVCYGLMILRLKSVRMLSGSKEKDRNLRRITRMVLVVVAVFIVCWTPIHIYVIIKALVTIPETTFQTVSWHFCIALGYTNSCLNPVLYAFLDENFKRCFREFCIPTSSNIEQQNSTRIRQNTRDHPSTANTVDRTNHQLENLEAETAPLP
Chain of Long-chain-fatty-acid--AMP ligase FadD28 (P9WQ59 whole entry): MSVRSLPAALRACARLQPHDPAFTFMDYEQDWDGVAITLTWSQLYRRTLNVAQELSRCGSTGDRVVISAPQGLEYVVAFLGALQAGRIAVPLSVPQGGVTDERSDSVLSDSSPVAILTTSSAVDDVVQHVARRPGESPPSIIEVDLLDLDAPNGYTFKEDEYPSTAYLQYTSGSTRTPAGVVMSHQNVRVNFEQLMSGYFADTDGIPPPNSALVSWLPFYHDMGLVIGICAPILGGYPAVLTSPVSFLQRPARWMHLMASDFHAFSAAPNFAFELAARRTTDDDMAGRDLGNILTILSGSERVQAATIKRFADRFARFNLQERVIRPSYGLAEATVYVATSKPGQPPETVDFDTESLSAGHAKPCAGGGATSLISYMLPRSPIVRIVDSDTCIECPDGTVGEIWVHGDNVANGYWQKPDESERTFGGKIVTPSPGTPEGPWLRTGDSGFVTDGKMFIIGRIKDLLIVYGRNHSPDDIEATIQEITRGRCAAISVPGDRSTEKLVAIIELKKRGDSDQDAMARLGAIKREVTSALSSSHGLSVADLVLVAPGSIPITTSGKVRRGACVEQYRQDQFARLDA
Chain of Broad substrate specificity ATP-binding cassette transporter ABCG2 (Q9UNQ0 whole entry, the tested form may be a part): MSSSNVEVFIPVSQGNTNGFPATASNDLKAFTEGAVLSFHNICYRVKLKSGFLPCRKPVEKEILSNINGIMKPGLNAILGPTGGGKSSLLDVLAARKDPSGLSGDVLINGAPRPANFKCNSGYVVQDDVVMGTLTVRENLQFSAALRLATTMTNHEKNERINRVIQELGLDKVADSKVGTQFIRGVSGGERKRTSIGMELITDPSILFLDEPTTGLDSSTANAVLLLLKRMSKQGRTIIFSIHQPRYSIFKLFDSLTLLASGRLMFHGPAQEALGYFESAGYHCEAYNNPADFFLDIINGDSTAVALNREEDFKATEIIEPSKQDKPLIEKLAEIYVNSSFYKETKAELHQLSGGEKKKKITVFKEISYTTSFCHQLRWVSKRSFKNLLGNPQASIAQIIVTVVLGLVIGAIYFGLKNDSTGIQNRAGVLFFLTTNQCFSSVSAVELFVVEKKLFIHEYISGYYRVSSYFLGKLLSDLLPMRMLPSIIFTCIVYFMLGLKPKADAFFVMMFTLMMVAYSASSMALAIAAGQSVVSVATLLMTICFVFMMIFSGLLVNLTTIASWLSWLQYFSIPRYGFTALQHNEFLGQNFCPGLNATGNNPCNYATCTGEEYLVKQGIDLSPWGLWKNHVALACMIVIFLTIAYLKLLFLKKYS
Chain of 5-hydroxytryptamine receptor 2A (P35363 whole entry): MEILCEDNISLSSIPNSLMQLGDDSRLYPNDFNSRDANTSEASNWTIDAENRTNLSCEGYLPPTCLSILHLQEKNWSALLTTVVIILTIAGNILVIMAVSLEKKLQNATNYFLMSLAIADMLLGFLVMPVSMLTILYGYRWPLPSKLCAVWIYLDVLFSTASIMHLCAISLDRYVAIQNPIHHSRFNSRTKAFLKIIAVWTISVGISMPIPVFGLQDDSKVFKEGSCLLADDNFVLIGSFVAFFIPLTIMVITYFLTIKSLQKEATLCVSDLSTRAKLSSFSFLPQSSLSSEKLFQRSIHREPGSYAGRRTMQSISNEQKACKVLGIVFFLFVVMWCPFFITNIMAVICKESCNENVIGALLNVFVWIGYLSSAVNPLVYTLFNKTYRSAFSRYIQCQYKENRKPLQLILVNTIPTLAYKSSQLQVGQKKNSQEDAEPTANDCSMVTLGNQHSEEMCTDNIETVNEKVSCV
Chain of Aryl hydrocarbon receptor (P35869 whole entry): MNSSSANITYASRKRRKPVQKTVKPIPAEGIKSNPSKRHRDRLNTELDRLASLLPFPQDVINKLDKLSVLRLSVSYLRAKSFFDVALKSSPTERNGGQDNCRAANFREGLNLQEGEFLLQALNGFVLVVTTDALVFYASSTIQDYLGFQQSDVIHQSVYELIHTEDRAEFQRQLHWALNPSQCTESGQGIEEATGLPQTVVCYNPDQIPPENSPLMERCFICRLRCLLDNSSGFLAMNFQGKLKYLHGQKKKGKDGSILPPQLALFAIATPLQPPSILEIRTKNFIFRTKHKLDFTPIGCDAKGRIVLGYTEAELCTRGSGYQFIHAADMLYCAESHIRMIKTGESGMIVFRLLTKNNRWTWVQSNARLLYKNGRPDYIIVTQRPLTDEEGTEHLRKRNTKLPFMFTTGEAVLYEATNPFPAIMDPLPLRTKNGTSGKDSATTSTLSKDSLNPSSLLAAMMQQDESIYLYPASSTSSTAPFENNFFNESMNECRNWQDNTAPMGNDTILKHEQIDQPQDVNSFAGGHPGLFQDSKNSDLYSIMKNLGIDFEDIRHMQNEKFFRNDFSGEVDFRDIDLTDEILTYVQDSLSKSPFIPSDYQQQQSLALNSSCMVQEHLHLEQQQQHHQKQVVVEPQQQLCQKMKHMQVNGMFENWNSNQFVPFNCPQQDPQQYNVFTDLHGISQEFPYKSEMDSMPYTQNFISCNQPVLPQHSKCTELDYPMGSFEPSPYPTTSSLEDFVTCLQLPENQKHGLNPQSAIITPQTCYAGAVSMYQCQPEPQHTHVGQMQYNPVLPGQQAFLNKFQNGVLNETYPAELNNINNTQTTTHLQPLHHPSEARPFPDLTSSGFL
Chain of ADP-ribosylation factor GTPase-activating protein 1 (Q62848 whole entry, the tested form may be a part): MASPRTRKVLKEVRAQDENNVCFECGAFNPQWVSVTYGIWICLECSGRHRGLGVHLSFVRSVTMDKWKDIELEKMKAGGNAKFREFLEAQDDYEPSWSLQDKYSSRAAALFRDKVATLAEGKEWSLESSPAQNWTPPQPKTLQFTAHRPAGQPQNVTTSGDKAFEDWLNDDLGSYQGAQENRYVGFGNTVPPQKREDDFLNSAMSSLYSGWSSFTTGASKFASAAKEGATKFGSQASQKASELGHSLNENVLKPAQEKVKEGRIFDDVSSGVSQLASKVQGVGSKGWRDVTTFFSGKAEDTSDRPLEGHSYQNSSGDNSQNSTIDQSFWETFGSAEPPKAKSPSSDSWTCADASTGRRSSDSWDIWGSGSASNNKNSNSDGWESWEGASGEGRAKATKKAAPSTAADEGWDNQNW
Chain of Photoreceptor-specific nuclear receptor (Q9Y5X4 whole entry, the tested form may be a part): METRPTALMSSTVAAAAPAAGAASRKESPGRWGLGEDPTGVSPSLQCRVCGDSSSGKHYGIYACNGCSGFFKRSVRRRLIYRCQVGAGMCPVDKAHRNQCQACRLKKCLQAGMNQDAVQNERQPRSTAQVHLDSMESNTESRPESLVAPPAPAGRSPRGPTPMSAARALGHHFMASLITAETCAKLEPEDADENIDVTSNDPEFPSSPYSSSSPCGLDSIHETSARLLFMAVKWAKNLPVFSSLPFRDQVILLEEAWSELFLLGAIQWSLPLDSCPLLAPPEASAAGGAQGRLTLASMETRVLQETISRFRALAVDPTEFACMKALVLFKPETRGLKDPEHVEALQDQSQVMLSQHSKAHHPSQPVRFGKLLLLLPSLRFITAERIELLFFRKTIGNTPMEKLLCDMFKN
Chain of Paired box protein Pax-8 (Q06710 whole entry): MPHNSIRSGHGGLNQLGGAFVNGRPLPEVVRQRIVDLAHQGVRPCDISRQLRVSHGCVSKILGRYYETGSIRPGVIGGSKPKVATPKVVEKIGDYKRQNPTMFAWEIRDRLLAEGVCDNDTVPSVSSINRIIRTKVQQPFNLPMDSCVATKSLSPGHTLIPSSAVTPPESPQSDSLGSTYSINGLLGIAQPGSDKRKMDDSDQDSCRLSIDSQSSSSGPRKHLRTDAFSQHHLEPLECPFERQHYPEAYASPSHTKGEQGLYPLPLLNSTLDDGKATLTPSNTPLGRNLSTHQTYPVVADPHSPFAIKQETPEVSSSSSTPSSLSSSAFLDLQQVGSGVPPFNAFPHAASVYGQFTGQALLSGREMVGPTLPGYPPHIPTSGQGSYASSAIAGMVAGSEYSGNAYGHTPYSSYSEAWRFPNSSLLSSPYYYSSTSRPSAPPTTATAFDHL

In the case of `CCN1CCN(Cc2ccc(NC(=O)c3ccc(C)c(NC(=O)C(=O)c4c[nH]c5ccccc45)c3)cc2C(F)(F)F)CC1`, the IC50 (Interleukin-8 [1]) is reported as 2.27 µM (active), the AC50 (INS1) is reported as 7.69 µM (active) and the AC50 [2] is reported as 11.3 µM (active). The EC50 [3] was 4.28 µM (active), the AC50 [4] was 8.7 µM (active) and the EC50 (Streptococcus) was 7.74 µM (active). The EC50 [5] was 4.17 µM (inconclusive), the IC50 [6] was > 20 µM (inactive) and the AC50 [7] was 68 µM (active). The AC50 (Paired box protein Pax-8) was 12.1 µM (active), the EC50 [8] was 7.65 µM (active) and the AC50 [9] was 14.1 µM (active). The EC50 [10] was 5.83 µM (active), the EC50 (Streptokinase A) was > 150 µM (not active) and the EC50 (Melanocortin receptor 4) was > 89.2 µM (inactive). For the same compound, the IC50 (Interleukin-8 [11]) was 39.7 µM (inactive) and the AC50 [12] was 12 µM (active).

With `CCN(CC)CCN=C(S)Nc1ccc2nc(N3CCN(C)CC3)cc(C)c2c1` the AC50 [13] was 5.01 µM (active) and the AC50 [14] was 17.2 µM (active).

With `COC(=O)c1ccc(C(C(=O)NC2CCCCC2)N(Cc2ccccc2)C(=O)Cc2cccs2)cc1` (stereo unspecified) the EC50 [15] was 4.6 µM (active).

With `O=C(C1CC1)N1CCc2cc(Br)cc(S(=O)(=O)N3CCN(c4ccccn4)CC3)c21` the IC50 [16] was 1.06 µM (active).

With `CCOC(=O)N1CCC(N2CCCC(C(=O)c3ccccc3OC)C2)CC1` (stereo unspecified) the EC50 [17] was 41.2 µM (inactive) and the EC50 (Mu-type opioid receptor) was 92.5 µM (inactive).

For `Cc1cc2nc(N)sc2cc1C`, the AC50 [18] was 10 µM (inconclusive).

With `CN(Cc1ccccc1F)C(=O)CN1c2cccc3cccc(c23)S1(=O)=O` the IC50 [19] was 47.1 µM (inactive) and the IC50 [20] was 41 µM (inactive).
